pIC50: −log10 of the molar value.
Test system: LG0703-F948-PDC complex spheroid viability
Experiment: Anticancer human tumor LG0703-F948-PDC patient-derived lung adenocarcinoma cell line growth inhibition [RAS]
Settings: for pIC50: curve of first compound; for viability, T/C: stronger effect = lower value
Procedure, shortened: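 Multi-cell-type spheroids: tumor cells plus HUVEC endothelial cells and mesenchymal stem cells. RAS-pathway inhibitors were combined with targeted agents, each dosed in half-log steps down from clinical Cmax, or from 10 microM when Cmax was unknown.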

[1] = second compound 0.000949 µM, first compound 0.00316 µM
[2] = second compound 0.000949 µM, first compound 0.01 µM
[3] = second compound 0.000949 µM, first compound 0.0316 µM
[4] = second compound 0.000949 µM, first compound 0.1 µM
[5] = second compound 0.003 µM, first compound 0.00316 µM
[6] = second compound 0.003 µM, first compound 0.01 µM
[7] = second compound 0.003 µM, first compound 0.0316 µM
[8] = second compound 0.003 µM, first compound 0.1 µM
[9] = second compound 0.00949 µM, first compound 0.00316 µM
[10] = second compound 0.00949 µM, first compound 0.01 µM
[11] = second compound 0.00949 µM, first compound 0.0316 µM
[12] = second compound 0.00949 µM, first compound 0.1 µM
[13] = second compound 0.03 µM, first compound 0.00316 µM
[14] = second compound 0.03 µM, first compound 0.01 µM
[15] = second compound 0.03 µM, first compound 0.0316 µM
[16] = second compound 0.03 µM, first compound 0.1 µM
[17] = second compound 0.0949 µM, first compound 0.00316 µM
[18] = second compound 0.0949 µM, first compound 0.01 µM
[19] = second compound 0.0949 µM, first compound 0.0316 µM
[20] = second compound 0.0949 µM, first compound 0.1 µM
[21] = second compound 0.3 µM, first compound 0.00316 µM
[22] = second compound 0.3 µM, first compound 0.01 µM
[23] = second compound 0.3 µM, first compound 0.0316 µM
[24] = second compound 0.3 µM, first compound 0.1 µM
[25] = second compound 0.000949 µM, first compound 0.316 µM
[26] = second compound 0.000949 µM, first compound 1 µM
[27] = second compound 0.000949 µM, first compound 3.16 µM
[28] = second compound 0.000949 µM, first compound 10 µM
[29] = second compound 0.003 µM, first compound 0.316 µM
[30] = second compound 0.003 µM, first compound 1 µM
[31] = second compound 0.003 µM, first compound 3.16 µM
[32] = second compound 0.003 µM, first compound 10 µM
[33] = second compound 0.00949 µM, first compound 0.316 µM
[34] = second compound 0.00949 µM, first compound 1 µM
[35] = second compound 0.00949 µM, first compound 3.16 µM
[36] = second compound 0.00949 µM, first compound 10 µM
[37] = second compound 0.03 µM, first compound 0.316 µM
[38] = second compound 0.03 µM, first compound 1 µM
[39] = second compound 0.03 µM, first compound 3.16 µM
[40] = second compound 0.03 µM, first compound 10 µM
[41] = second compound 0.0949 µM, first compound 0.316 µM
[42] = second compound 0.0949 µM, first compound 1 µM
[43] = second compound 0.0949 µM, first compound 3.16 µM
[44] = second compound 0.0949 µM, first compound 10 µM
[45] = second compound 0.3 µM, first compound 0.316 µM
[46] = second compound 0.3 µM, first compound 1 µM
[47] = second compound 0.3 µM, first compound 3.16 µM
[48] = second compound 0.3 µM, first compound 10 µM
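Also: spheroids exposed to agents for 7 days.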
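For viability, T/C in this document: 100% = DMSO vehicle wells.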

In the case of `CC(C)n1nc(-c2ccc3oc(N)nc3c2)c2c(N)ncnc21` + CCn1c(-c2cc(N3CCN(C)CC3)cnc2C(C)OC)c2c3cc(ccc31)-c1csc(n1)CC(NC(=O)C1CC1C)C(=O)N1CCCC(N1)C(=O)OCC(C)(C)C2, the pIC50 (second compound 0.000949 µM) was 8.82, the pIC50 (second compound 0.003 µM) was 9.37 and the pIC50 (second compound 0.00949 µM) was over 9.50. The pIC50 (second compound 0.03 µM) was over 9.50, the pIC50 (second compound 0.0949 µM) was over 9.50 and the pIC50 (second compound 0.3 µM) was over 9.50. For the same molecule, the viability, T/C (second compound 0.000949 µM, first compound 0.000316 µM) was 66.8%, the viability, T/C (second compound 0.000949 µM, first compound 0.001 µM) was 56.5% and the viability, T/C [1] was 38.5%. For the same molecule, the viability, T/C [2] was 30.5%, the viability, T/C [3] was 12.7% and the viability, T/C [4] was 5.51%. For the same molecule, the viability, T/C (second compound 0.003 µM, first compound 0.000316 µM) was 55.5%, the viability, T/C (second compound 0.003 µM, first compound 0.001 µM) was 34.8% and the viability, T/C [5] was 29.7%. The viability, T/C [6] was 13.1%, the viability, T/C [7] was 8.23% and the viability, T/C [8] was 3.1%. For the same molecule, the viability, T/C (second compound 0.00949 µM, first compound 0.000316 µM) was 31.1%, the viability, T/C (second compound 0.00949 µM, first compound 0.001 µM) was 20.7% and the viability, T/C [9] was 12.6%. It also gave a viability, T/C [10] of 6.99%, a viability, T/C [11] of 4.36% and a viability, T/C [12] of 2.06%. The viability, T/C (second compound 0.03 µM, first compound 0.000316 µM) was 12.7%, the viability, T/C (second compound 0.03 µM, first compound 0.001 µM) was 13.1% and the viability, T/C [13] was 6.11%. It also gave a viability, T/C [14] of 5.4%, a viability, T/C [15] of 2.59% and a viability, T/C [16] of 1.58%. The viability, T/C (second compound 0.0949 µM, first compound 0.000316 µM) was 12.9%, the viability, T/C (second compound 0.0949 µM, first compound 0.001 µM) was 8.35% and the viability, T/C [17] was 6.05%. It also gave a viability, T/C [18] of 3.05%, a viability, T/C [19] of 1.82% and a viability, T/C [20] of 1.05%. It also gave a viability, T/C (second compound 0.3 µM, first compound 0.000316 µM) of 10.7%, a viability, T/C (second compound 0.3 µM, first compound 0.001 µM) of 7.72% and a viability, T/C [21] of 4.76%. For the same molecule, the viability, T/C [22] was 3.02%, the viability, T/C [23] was 1.64% and the viability, T/C [24] was 0.76%.
For `CC1(O)CCCC1n1c(=O)c(C(F)F)cc2cnc(NC3CCN(S(C)(=O)=O)CC3)nc21` (stereo not drawn) + CCn1c(-c2cc(N3CCN(C)CC3)cnc2C(C)OC)c2c3cc(ccc31)-c1csc(n1)CC(NC(=O)C1CC1C)C(=O)N1CCCC(N1)C(=O)OCC(C)(C)C2, the pIC50 (second compound 0.000949 µM) was 5.34, the pIC50 (second compound 0.003 µM) was over 7.50 and the pIC50 (second compound 0.00949 µM) was over 7.50. The pIC50 (second compound 0.03 µM) was over 7.50, the pIC50 (second compound 0.0949 µM) was over 7.50 and the pIC50 (second compound 0.3 µM) was over 7.50. For the same molecule, the viability, T/C [3] was 77.1%, the viability, T/C [4] was 89.8% and the viability, T/C [25] was 69.7%. The viability, T/C [26] was 71.1%, the viability, T/C [27] was 63% and the viability, T/C [28] was 28.3%. The viability, T/C [7] was 52.2%, the viability, T/C [8] was 48.5% and the viability, T/C [29] was 46.9%. For the same molecule, the viability, T/C [30] was 52.1%, the viability, T/C [31] was 46.7% and the viability, T/C [32] was 18.4%. For the same molecule, the viability, T/C [11] was 27.4%, the viability, T/C [12] was 31% and the viability, T/C [33] was 31%. The viability, T/C [34] was 29.3%, the viability, T/C [35] was 33.4% and the viability, T/C [36] was 13.4%. The viability, T/C [15] was 16.4%, the viability, T/C [16] was 18.5% and the viability, T/C [37] was 15.9%. For the same molecule, the viability, T/C [38] was 19.1%, the viability, T/C [39] was 19.1% and the viability, T/C [40] was 7.67%. For the same molecule, the viability, T/C [19] was 11.3%, the viability, T/C [20] was 14% and the viability, T/C [41] was 12.9%. It also gave a viability, T/C [42] of 17%, a viability, T/C [43] of 21% and a viability, T/C [44] of 5.97%. The viability, T/C [23] was 10.2%, the viability, T/C [24] was 7.6% and the viability, T/C [45] was 15.7%. The viability, T/C [46] was 12.1%, the viability, T/C [47] was 11.2% and the viability, T/C [48] was 5.22%.
`CCN1CCN(Cc2ccc(Nc3ncc(F)c(-c4cc(F)c5nc(C)n(C(C)C)c5c4)n3)nc2)CC1` + CCn1c(-c2cc(N3CCN(C)CC3)cnc2C(C)OC)c2c3cc(ccc31)-c1csc(n1)CC(NC(=O)C1CC1C)C(=O)N1CCCC(N1)C(=O)OCC(C)(C)C2 was tested, and the pIC50 (second compound 0.000949 µM) was under 6.00, the pIC50 (second compound 0.003 µM) was under 6.00 and the pIC50 (second compound 0.00949 µM) was over 8.50. The pIC50 (second compound 0.03 µM) was over 8.50, the pIC50 (second compound 0.0949 µM) was over 8.50 and the pIC50 (second compound 0.3 µM) was over 8.50. For the same molecule, the viability, T/C [1] was 82%, the viability, T/C [2] was 68% and the viability, T/C [3] was 60.8%. The viability, T/C [4] was 68.2%, the viability, T/C [25] was 63.9% and the viability, T/C [26] was 52%. For the same molecule, the viability, T/C [5] was 58.2%, the viability, T/C [6] was 49.1% and the viability, T/C [7] was 47.7%. The viability, T/C [8] was 53.2%, the viability, T/C [29] was 57% and the viability, T/C [30] was 48.9%. It also gave a viability, T/C [9] of 26.1%, a viability, T/C [10] of 24.8% and a viability, T/C [11] of 28.4%. The viability, T/C [12] was 22%, the viability, T/C [33] was 31.7% and the viability, T/C [34] was 34.5%. For the same molecule, the viability, T/C [13] was 17%, the viability, T/C [14] was 14.6% and the viability, T/C [15] was 14.7%. The viability, T/C [16] was 17%, the viability, T/C [37] was 18.6% and the viability, T/C [38] was 26.2%. The viability, T/C [17] was 10.1%, the viability, T/C [18] was 11.1% and the viability, T/C [19] was 10.2%. It also gave a viability, T/C [20] of 11.3%, a viability, T/C [41] of 14.9% and a viability, T/C [42] of 23.9%. It also gave a viability, T/C [21] of 9.56%, a viability, T/C [22] of 9.57% and a viability, T/C [23] of 8.56%. It also gave a viability, T/C [24] of 10.3%, a viability, T/C [45] of 13.5% and a viability, T/C [46] of 18.3%.
For `C[C@@H](NC(=O)c1ncnc(N)c1Cl)c1ncc(C(=O)Nc2cc(C(F)(F)F)c(Cl)cn2)s1` + CCn1c(-c2cc(N3CCN(C)CC3)cnc2C(C)OC)c2c3cc(ccc31)-c1csc(n1)CC(NC(=O)C1CC1C)C(=O)N1CCCC(N1)C(=O)OCC(C)(C)C2, the pIC50 (second compound 0.000949 µM) was under 5.00, the pIC50 (second compound 0.003 µM) was under 5.00 and the pIC50 (second compound 0.00949 µM) was over 7.50. For the same molecule, the pIC50 (second compound 0.03 µM) was over 7.50, the pIC50 (second compound 0.0949 µM) was over 7.50 and the pIC50 (second compound 0.3 µM) was over 7.50. It also gave a viability, T/C [3] of 74.7%, a viability, T/C [4] of 78.6% and a viability, T/C [25] of 79.2%. It also gave a viability, T/C [26] of 76.4%, a viability, T/C [27] of 83.9% and a viability, T/C [28] of 75.6%. For the same molecule, the viability, T/C [7] was 54.3%, the viability, T/C [8] was 46.9% and the viability, T/C [29] was 52.8%. The viability, T/C [30] was 65.1%, the viability, T/C [31] was 55.5% and the viability, T/C [32] was 68.9%. It also gave a viability, T/C [11] of 31.6%, a viability, T/C [12] of 28.8% and a viability, T/C [33] of 28.1%. For the same molecule, the viability, T/C [34] was 30.3%, the viability, T/C [35] was 33.8% and the viability, T/C [36] was 39.8%. For the same molecule, the viability, T/C [15] was 17.5%, the viability, T/C [16] was 17.6% and the viability, T/C [37] was 16.1%. The viability, T/C [38] was 17%, the viability, T/C [39] was 21.2% and the viability, T/C [40] was 21.5%. The viability, T/C [19] was 15.8%, the viability, T/C [20] was 9.99% and the viability, T/C [41] was 11.8%. The viability, T/C [42] was 13.7%, the viability, T/C [43] was 15.9% and the viability, T/C [44] was 13.7%. For the same molecule, the viability, T/C [23] was 11.7%, the viability, T/C [24] was 11.5% and the viability, T/C [45] was 13.1%. The viability, T/C [46] was 9.77%, the viability, T/C [47] was 14.9% and the viability, T/C [48] was 15.3%.

— PubChem BioAssay AID2060890 (Molecular Pharmacology Branch, DTP, NCI, 2025)
